Results published in PMC5323398, “Restoration of Epithelial Sodium Channel Function by Synthetic Peptides in Pseudohypoaldosteronism Type 1B Mutants” (Frontiers in Pharmacology, 2017).
Where a chain is given by its changes, count along the chain named.

What was measured:
[1] = tested on: mock-transfected HEK-293 cells; experiment: Whole-cell current of mock-transfected cells; format: cell-based, human
Description: Whole-cell currents were recorded from transfected HEK-293 cells with an Axopatch 200B amplifier, DigiData 1440A and pCLAMP10.2 software (Axon Instruments, Union City, CA) at room temperature (19–22°C) 48–72 h after transfection. Currents were recorded at 10 kHz and filtered at 5 kHz. The chamber contained 1 ml bath solution of the following composition (in mM): 145 NaCl, 2.7 KCl, 1.8 CaCl2, 2 MgCl2, 5.5 glucose, and 10 HEPES, adjusted to pH 7.4 with 1 M NaOH solution. The borosilicate glass patch pipettes (Harvard Apparatus, Holliston, MA) had resistances of 2–4 MΩ. The pipette solution contained (in mM): 135 potassium methane sulphonate, 10 KCl, 6 NaCl, 1Mg2ATP, 2 Na3ATP, 10 HEPES, and 0.5 EGTA, adjusted to pH 7.2 with 1 M KOH solution. Data acquisition and storage were processed directly to a PC. […] Differences were evaluated by one-way ANOVA followed by Tukey's post-hoc test.

αQ101K mutant hENaC = biological target: T1, αQ101K mutant hENaC (Homo sapiens, UniProt P37088+P51168+P51170, Q101K); experiment: Whole-cell patch clamp, amiloride-sensitive Na+ current, αQ101K ENaC; format: cell-based; details: αQ101K activated by solnatide; 10 μM amiloride
T1 construct: expressed in transfected cells
T1 sequence (P37088 1-669 Q101K): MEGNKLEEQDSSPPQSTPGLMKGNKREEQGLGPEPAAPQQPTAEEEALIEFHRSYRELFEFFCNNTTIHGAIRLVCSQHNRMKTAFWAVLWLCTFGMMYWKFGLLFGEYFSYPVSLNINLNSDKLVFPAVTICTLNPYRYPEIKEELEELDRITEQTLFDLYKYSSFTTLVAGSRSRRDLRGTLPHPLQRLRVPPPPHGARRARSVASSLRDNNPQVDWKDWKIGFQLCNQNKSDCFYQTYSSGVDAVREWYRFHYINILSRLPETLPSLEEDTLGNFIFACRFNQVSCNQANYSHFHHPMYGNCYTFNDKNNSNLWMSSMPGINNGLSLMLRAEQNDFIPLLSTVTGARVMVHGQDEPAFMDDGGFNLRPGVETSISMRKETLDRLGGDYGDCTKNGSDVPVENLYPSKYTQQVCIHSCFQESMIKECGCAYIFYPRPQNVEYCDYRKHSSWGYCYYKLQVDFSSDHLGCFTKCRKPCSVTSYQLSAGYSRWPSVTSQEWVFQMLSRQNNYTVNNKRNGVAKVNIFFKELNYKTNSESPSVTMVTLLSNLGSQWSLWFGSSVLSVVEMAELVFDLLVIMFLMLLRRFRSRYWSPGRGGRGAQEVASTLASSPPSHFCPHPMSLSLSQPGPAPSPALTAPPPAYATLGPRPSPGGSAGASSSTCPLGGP
T1 sequence (P51168 1-640): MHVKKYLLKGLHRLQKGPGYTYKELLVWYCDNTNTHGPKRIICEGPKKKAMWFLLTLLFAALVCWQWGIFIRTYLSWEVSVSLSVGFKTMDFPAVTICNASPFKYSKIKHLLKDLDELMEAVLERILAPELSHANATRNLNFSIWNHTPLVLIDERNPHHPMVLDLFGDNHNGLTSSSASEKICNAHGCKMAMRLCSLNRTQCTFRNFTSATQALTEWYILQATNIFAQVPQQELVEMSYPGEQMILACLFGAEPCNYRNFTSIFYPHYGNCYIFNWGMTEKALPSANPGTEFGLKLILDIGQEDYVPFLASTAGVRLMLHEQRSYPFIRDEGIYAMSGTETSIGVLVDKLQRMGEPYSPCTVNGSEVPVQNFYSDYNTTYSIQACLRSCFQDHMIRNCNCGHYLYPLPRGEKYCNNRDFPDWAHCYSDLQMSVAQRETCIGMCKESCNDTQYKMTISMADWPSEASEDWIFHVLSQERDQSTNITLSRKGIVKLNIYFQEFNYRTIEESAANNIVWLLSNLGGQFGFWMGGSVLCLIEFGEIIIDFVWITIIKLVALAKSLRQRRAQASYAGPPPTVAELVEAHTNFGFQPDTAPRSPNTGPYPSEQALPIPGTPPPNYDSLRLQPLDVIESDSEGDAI
T1 sequence (P51170 1-649): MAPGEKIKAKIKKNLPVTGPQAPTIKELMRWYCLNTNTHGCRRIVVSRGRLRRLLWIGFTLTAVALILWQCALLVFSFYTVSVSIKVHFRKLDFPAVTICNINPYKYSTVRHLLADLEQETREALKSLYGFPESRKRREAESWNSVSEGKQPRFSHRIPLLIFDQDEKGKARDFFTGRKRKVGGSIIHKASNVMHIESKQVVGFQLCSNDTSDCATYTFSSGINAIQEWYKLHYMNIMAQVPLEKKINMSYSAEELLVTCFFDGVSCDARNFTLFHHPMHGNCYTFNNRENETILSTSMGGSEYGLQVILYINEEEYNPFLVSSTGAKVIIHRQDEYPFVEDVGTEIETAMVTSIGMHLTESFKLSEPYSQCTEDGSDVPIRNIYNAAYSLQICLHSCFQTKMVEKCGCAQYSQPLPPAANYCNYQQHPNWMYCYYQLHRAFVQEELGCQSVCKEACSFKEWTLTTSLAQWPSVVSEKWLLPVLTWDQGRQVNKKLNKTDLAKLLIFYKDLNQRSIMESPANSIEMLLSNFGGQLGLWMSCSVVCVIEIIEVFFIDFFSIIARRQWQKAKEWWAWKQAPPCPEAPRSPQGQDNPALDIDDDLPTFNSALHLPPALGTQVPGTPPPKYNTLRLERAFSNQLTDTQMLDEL
Description: (§1) Human embryonic kidney HEK-293 cells (ATCC no. CRL-1573) in passages 3–25, were seeded in Dulbecco's modified Eagle medium/F12 nutrient mixture Ham plus L-glutamine (DMEM/F-12; Gibco™ by Life Technologies, LifeTech Austria), supplemented with 10% fetal bovine serum (FBS; Gibco™ by Life Technologies, LifeTech Austria) and 1% penicillin-streptomycin (Sigma-Aldrich, Vienna, Austria). Cells were maintained at 37°C with 5% CO2 in a humidified incubator.
(§2) Point mutations and single base (insertions or) deletions, causing a frameshift, were introduced into cDNA encoding α-, β-, or γ-hENaC using QuikChange Lightning Site-Directed Mutagenesis Kit (Agilent Technologies, CA, USA). Pairs of mutagenic primers were designed individually with the Primer Design Program provided on the producer's website. The same bases were changed as reported in patients or at least resulting in the same protein products. The designed primers were ordered after checking their properties using the DNA Oligos Design Tool from Sigma-Aldrich, Vienna, Austria (Table 1).
(§3) HEK-293 cells were transfected 1 day after cell seeding using X-tremeGENE HP DNA transfection reagent (Roche Diagnostics, Mannheim, Germany) according to the manufacturer's protocol. […]

αG327C mutant hENaC = biological target: T2, αG327C mutant hENaC (Homo sapiens, UniProt P37088+P51168+P51170, G327C); experiment: Whole-cell patch clamp, amiloride-sensitive Na+ current, αG327C ENaC; format: cell-based; details: αG327C activated by AP318; 10 μM amiloride
T2 construct: expressed in transfected cells
T2 sequence (P37088 1-669 G327C): T1 sequence (P37088 1-669 Q101K) with K101Q, G327C
T2 sequence (P51168 1-640): T1 sequence (P51168 1-640)
T2 sequence (P51170 1-649): T1 sequence (P51170 1-649)
Description: as §1, §2, §3

[2] = biological target: human ENaC with the frameshift γV543fs (γ subunit of 597 residues, abnormal sequence after S542), co-expressed with WT α and β subunits (human) (UniProt P37088)

Row | Molecule | amiloride-sensitive or peptide-induced current ([1]; 10 μM amiloride or 200 nM peptide) | whole-cell current ([1]; 10 μM amiloride, control 11.28 ± 5.68 pA) [pA] | block of peptide-induced activation (αQ101K mutant hENaC) | block of peptide-induced activation (αG327C mutant hENaC) | EC50 of the increase of amiloride-sensitive Na+ current, whole-cell patch clamp at -100 mV, transfected HEK-293 cells, peptide 2-200 nM [2] [nM]
1 | N=C(N)NC(=O)c1nc(Cl)c(N)nc1N [amiloride] | about zero | 10.47 ± 6.23 | can be blocked by 10 μM amiloride | can be blocked by 10 μM amiloride | 
2 | AP318 (peptide) |  |  |  |  | 47.7
